This is an account of results in patent publication US10265276B2, “Pharmaceutical composition for preventing or treating arthritis or inflammatory disease containing 2-methoxy-4-(3-(4-methoxyphenyl)propyl-1-en-1-yl)phenol as active ingredient” (CHUNGBUK NATIONAL UNIVERSITY INDUSTRY-ACADEMIC COOPERATION …, priority 2015, dated 2019).

Experiment [1] deals with STAT3. Description: STAT3-luciferase activity assay in LPS-induced RAW 264.7 cells. The note with it: concentration-dependent manner (0 to 4 mg/mL). The format is cell-based, mouse. As to the method: (§1) 9. Cell infection: RAW 264.7 cells (5×10^4 cells/well) were added to a 24-well plate, and transiently infected with a STAT3-luciferase reporter plasmid and an iNOS-luciferase reporter plasmid using a Lipofectamine PLUS and plasmid mixture in OPTI-MEN.
11. Luciferase activity assay: RAW264.7 cells added to a 24-well plate at a density of 1×10^5 cells/well. After 90% confluence, the cells were transiently infected with STAT3 siRNA (Santa Cruz Biotechnology) or a mutant STAT3 (T456A) plasmid using a mixture of STAT3 siRNA (Santa Cruz Biotechnology) or a mutant STAT3 (T456A) plasmid and WelFect-EX PLUS in OPTI-MEN. […] The luciferase activity was measured using a luciferase assay kit (Promega, Madison, Wis., USA).
RAW 264.7 cells were transiently infected with a STAT3-luciferase construct, treated with LPS (1 μg/mL) alone or a combination of MMPP and LPS, and then activated for 12 hours. Thereafter, the luciferase activity, the ROS and PGE2 expression, and a level of pro-inflammatory cytokines were determined.

Experiment [2] deals with synoviocytes. In words: Anti-inflammatory effect in LPS- or TNF-α-treated synoviocytes. It is filed as cell-based, human. Particulars: LPS or TNF-α (10 ng/mL), 24 hours. An excerpt: 4. Human synoviocyte culture: The research protocol and human tissue cells used in the study were approved by the College of Medicine of Soon Chun Hyang University Medical Center. Cells were obtained from patients with rheumatoid arthritis diagnosed according to the American College of Rheumatology classification criteria revised in 1987. Synovial tissue samples are obtained from knee joints of patients with long-term rheumatoid arthritis (two males and two females, an average age of 65±21.3 years, and an average onset period of 10 years or more). FLS (Fibroblast-like synoviocytes) were cultured as described above. Simply, the FLSs were cultured in a culture dish (Nalge Nunc International, Rochester, N.Y., USA) containing a DMEM culture medium (Gibco Life Technologies) supplemented with […] FBS (Gibco Life Technologies) and 50 U·mL^−1 penicillin/streptomycin. For all cultures and an incubator, the culture was performed at 37° C. in an incubator under a 5% CO2 atmosphere. The medium was replaced every three days. The cells between 5th and 10th passage were used.
In Experimental Example 8, an experiment was performed to check an anti-inflammatory effect of MMPP in synoviocytes treated with LPS and TNF-α.
It was confirmed that the LPS […]- or TNF-α (10 ng/mL)-induced NO and ROS generations (FIG. 9(A)), the iNOS and COX2 expression (FIG. 9(B)), and STAT3 and NF-κB activities (FIGS. 9(C) and (D)) were reduced in the synoviocytes in the case of groups in which the […] were treated with LPS […] or TNF-α (10 ng/mL) in combination with MMPP […] for 24 hours.

Experiment [3] concerns iNOS. Description: iNOS-luciferase activity assay in LPS-induced RAW 264.7 cells. It is filed as cell-based, mouse. The note with it: LPS (1 µg/mL) and MMPP (0 to 4 µg/mL). As to the method:
as §1
In Experimental Example 4, a luciferase activity assay was carried out to determine whether MMPP inhibited generation of LPS-induced infective factors in RAW 264.7 cells. RAW 264.7 cells were transiently infected with an iNOS-luciferase construct, treated with LPS (1 μg/mL) alone or a combination of MMPP and LPS, and then activated for 12 hours.

The subject of experiment [4] is STAT3. Description: Effect of STAT3 siRNA or STAT3 inhibitor on the effect of MMPP in LPS-treated RAW 264.7 cells. The format is cell-based, mouse. More on the design: dose or concentration left out as unconfirmed. As to the method:
11. Luciferase activity assay: RAW264.7 cells added to a 24-well plate at a density of 1×10^5 cells/well. After 90% confluence, the cells were transiently infected with STAT3 siRNA (Santa Cruz Biotechnology) or a mutant STAT3 (T456A) plasmid using a mixture of STAT3 siRNA (Santa Cruz Biotechnology) or a mutant STAT3 (T456A) plasmid and WelFect-EX PLUS in OPTI-MEN. The infected cells were treated with LPS (1 μg/mL) and different concentrations of MMPP (1 to 4 μg/mL) for 12 hours. The luciferase activity was measured using a luciferase assay kit (Promega, Madison, Wis., USA).
First, a protective effect of MMPP on the LPS-induced pro-inflammatory response was tested using RAW 264.7 cells infected with STAT3 siRNA.
The RAW 264.7 cells were infected with STAT3 siRNA. After 24 hours, the infected cells were then treated with […] of LPS alone or in combination with MMPP. Thereafter, the NO generation, the iNOS and COX2 expression, and the DNA binding activity of NF-κB were measured.
Next, it was examined whether an effect of a STAT3 inhibitor in RAW 264.7 cells was limited. RAW 264.7 cells were treated with a STAT3 inhibitor […] alone or in combination with MMPP, and the NO generation, the iNOS and COX2 expression, and the DNA binding activity of NF-κB were also measured.

Like-named read-outs stand apart in the source and are kept apart here.

Consider `COc1ccc(C/C=C/c2ccc(O)c(OC)c2)cc1` [MMPP, 2-methoxy-4-(3-(4-methoxyphenyl)prop-1-en-1-yl)phenol], for which the “LPS-induced STAT3 luciferase activity” value in experiment [1] is on record as “inhibited”. For the same compound, in experiment [2], the “NO and ROS generations” value is listed as “reduced”; the “STAT3 and NF-κB activities” value is reported as “reduced”; the “iNOS and COX2 expression” value is “reduced”. Also, the iNOS luciferase activity entry in experiment [3] is given as “reduced in a concentration-dependent manner”. Further, the “inhibitory effect of MMPP on LPS-induced NO generation, iNOS and COX2 expression, and NF-κB activity” value in experiment [4] is “completely limited”. Further, in experiment [4] (STAT3 knock-down cells (STAT3 siRNA)), the “inhibitory effect of MMPP on LPS-induced NO generation, iNOS and COX2 expression, and NF-κB activity” value is given as “limited”.
